This note sets out measurements from ChEMBL document CHEMBL4251740, “Further Exploring Solvent-Exposed Tolerant Regions of Allosteric Binding Pocket for Novel HIV-1 NNRTIs Discovery” (ACS Med Chem Lett, 2018).

Each structure is given as a SMILES string. Calls of active or inactive are those of the source. The calls are words filed in the database; no cut-off is given here. Where only a bound is given, the exact number is not on record here.

A short description of series [1]: Selectivity index, ratio of CC50 for human MT4 cells to EC50 for wild-type HIV1 3B reverse transcriptase infected in human MT4 cells. Particulars: read-out: Ratio CC50/EC50. The series is classed as toxicity, cell-based.
A short description of series [2]: Selectivity index, ratio of CC50 for human MT4 cells to EC50 for HIV1 RES056 reverse transcriptase K103N/Y181C double mutant infected in human MT4 cells. Particulars: read-out: Ratio CC50/EC50. It counts as toxicity, cell-based.
Series [3] in a line: (§1) Cytotoxicity against human MT4 cells assessed as reduction in cell viability by MTT assay. The series is classed as cell-based. Conditions: MT4 cells. (Tetrazolium assays rely on reduction of a dye to a coloured formazan, in cell work by metabolically active cells.)
In series [4] the test system is Human immunodeficiency virus 1. The experiment in a line: Fold resistance, ratio of EC50 for HIV1 reverse transcriptase K103N mutant infected in human MT4 cells to EC50 for wild-type HIV1 3B reverse transcriptase infected in human MT4 cells. It counts as cell-based.
Series [5] deals with Human immunodeficiency virus type 1 reverse transcriptase (Human immunodeficiency virus 1), Q72547 [K103N]. The experiment in a line: Potency index, ratio of ETV EC50 to test compound EC50 for HIV1 reverse transcriptase K103N mutant infected in human MT4 cells. The series is classed as cell-based.
Series [6] deals with Human immunodeficiency virus type 1 reverse transcriptase (Human immunodeficiency virus 1), Q72547 [L100I]. The series can be described thus: Potency index, ratio of ETV EC50 to test compound EC50 for HIV1 reverse transcriptase L100I mutant infected in human MT4 cells. It counts as cell-based.
The target of series [7] is Human immunodeficiency virus type 1 reverse transcriptase (Human immunodeficiency virus 1) (UniProt Q72547). The series can be described thus: Potency index, ratio of ETV EC50 to test compound EC50 for wild-type HIV1 3B reverse transcriptase infected in human MT4 cells. It counts as cell-based.
The test system of series [8] is Human immunodeficiency virus type 1 reverse transcriptase (Human immunodeficiency virus 1), Q72547 [K103N,Y181C]. The experiment in a line: Potency index, ratio of ETV EC50 to test compound EC50 for HIV1 RES056 reverse transcriptase K103N/Y181C double mutant infected in human MT4 cells. It counts as cell-based.
For series [9], the system named is Human immunodeficiency virus type 1 reverse transcriptase (Human immunodeficiency virus 1), Q72547 [E138K]. The experiment in a line: Potency index, ratio of ETV EC50 to test compound EC50 for HIV1 reverse transcriptase E138K mutant infected in human MT4 cells. The series is classed as cell-based.
For series [10], the system named is Human immunodeficiency virus type 1 reverse transcriptase (Human immunodeficiency virus 1), Q72547 [F227L,V106A]. The series can be described thus: Potency index, ratio of ETV EC50 to test compound EC50 for HIV1 RES056 reverse transcriptase F227L/V106A double mutant infected in human MT4 cells. It counts as cell-based.
Series [11] relates to Human immunodeficiency virus type 1 reverse transcriptase (Human immunodeficiency virus 1), Q72547 [R221A]. The experiment in a line: Potency index, ratio of ETV EC50 to test compound EC50 for HIV1 reverse transcriptase Y188L mutant infected in human MT4 cells. It counts as cell-based.
Series [12] relates to Human immunodeficiency virus 1. The series can be described thus: Fold resistance, ratio of EC50 for HIV1 reverse transcriptase Y181C mutant infected in human MT4 cells to EC50 for wild-type HIV1 3B reverse transcriptase infected in human MT4 cells. It counts as cell-based.
The test system of series [13] is Human immunodeficiency virus type 1 reverse transcriptase (Human immunodeficiency virus 1), Q72547 [R221A]. The series can be described thus: Inhibition of HIV1 reverse transcriptase Y188L mutant infected in human MT4 cells assessed as protection against virus-induced cytotoxicity by MTT assay. It counts as cell-based.
Series [14] concerns Human immunodeficiency virus type 1 reverse transcriptase (Human immunodeficiency virus 1), Q72547 [L100I]. The series can be described thus: Inhibition of HIV1 reverse transcriptase L100I mutant infected in human MT4 cells assessed as protection against virus-induced cytotoxicity by MTT assay. The series is classed as cell-based.
The subject of series [15] is Human immunodeficiency virus type 1 reverse transcriptase (Human immunodeficiency virus 1), Q72547 [Y181C]. The series can be described thus: Inhibition of HIV1 reverse transcriptase Y181C mutant infected in human MT4 cells assessed as protection against virus-induced cytotoxicity by MTT assay. It counts as cell-based.
Series [16] has as its system Human immunodeficiency virus type 1 reverse transcriptase (Human immunodeficiency virus 1), Q72547 [F227L,V106A]. The series can be described thus: Inhibition of HIV1 RES056 reverse transcriptase F227L/V106A double mutant infected in human MT4 cells assessed as protection against virus-induced cytotoxicity by MTT assay. The series is classed as cell-based.
For series [17], the system named is Human immunodeficiency virus 1. The experiment in a line: Fold resistance, ratio of EC50 for HIV1 reverse transcriptase E138K mutant infected in human MT4 cells to EC50 for wild-type HIV1 3B reverse transcriptase infected in human MT4 cells. The series is classed as cell-based.
The test system of series [18] is Human immunodeficiency virus type 1 reverse transcriptase (Human immunodeficiency virus 1), Q72547 [K103N]. The series can be described thus: Inhibition of HIV1 reverse transcriptase K103N mutant infected in human MT4 cells assessed as protection against virus-induced cytotoxicity by MTT assay. The series is classed as cell-based.
For a further series, the system named is MT4. The description is as §1. Particulars: mt4. The series is classed as cell-based.

`Cc1cc(C#Cc2cccnc2)cc(C)c1Oc1nc(NC2CCN(Cc3ccc(S(N)(=O)=O)cc3)CC2)nc2ccsc12`: the selectivity ratio in [1] was 157; in series [2] it was 42. Besides, in series [3], the CC50 was 6.39 µM.

In the case of `Cc1ccnc2c1NC(=O)c1cccnc1N2C1CC1` [NEVIRAPINE], the CC50 in series [3] is greater than 15 µM.

As to `Cc1cc(C#N)cc(C)c1Oc1nc(NC2CCN(Cc3ccc(C(N)=O)cc3)CC2)nc2cc[nH]c12`, the selectivity ratio worked out at 1830 in [1] and 118 in series [2]. Besides, in series [3], the CC50 worked out at 15.9 µM. In addition, the Ratio EC50 in series [4] lay in the range of 0.3 to 0.6.

Take `Cc1cc(C#N)cc(C)c1Oc1nc(NC2CCN(Cc3ccc(S(N)(=O)=O)cc3)CC2)nc2cc[nH]c12`: the Ratio EC50 in [5] fell in the range of 4 to 5; in series [6] it was 1.5 to 2.6; in series [7], 1.5 to 2.6; in series [8], 1.5 to 2.6; in series [9] it was 4 to 5; in series [10], 1.5 to 2.6. Also, the figures for the Ratio EC50 in series [11] and in [4] were 4 to 5 and 0.3 to 0.6, respectively. Besides, the selectivity ratio in series [1] worked out at 1050; in series [2] it was 61. The 50% cytotoxic concentration (CC50) in series [3] is 1.91 µM.

`Cc1cc(C#Cc2ccncc2)cc(C)c1Oc1nc(NC2CCN(Cc3ccc(S(N)(=O)=O)cc3)CC2)nc2ccsc12`: the results for the selectivity ratio in [1] and in series [2] were 340 and 52, respectively. The CC50 in series [3] came out at 11.5 µM.

Turning to `Cc1cc(/C=C/C#N)cc(C)c1Nc1nc(NC2CCN(Cc3ccc(S(N)(=O)=O)cc3)CC2)nc2ccsc12`, the results for the selectivity ratio in series [1] and in [2] were 1880 and 419, respectively. Besides, in series [3], the CC50 came to 2.3 µM.

Take `O=C1Nc2ccc(Cl)cc2[C@@](C#CC2CC2)(C(F)(F)F)O1` [EFAVIRENZ]: the CC50 in [3] was greater than 6.34 µM.

Take `Cc1cc(C#N)cc(C)c1Oc1nc(NC2CCN(Cc3ccc(S(N)(=O)=O)cc3)CC2)nc2ccn(S(=O)(=O)c3ccccc3)c12`: the selectivity ratio came out at 454 in series [1] and 33 in [2]. Moreover, the half-maximal cytotoxic concentration (CC50) in [3] came out at 3.67 µM.

For `Cc1cc(C#N)cc(C)c1Oc1nc(NC2CCN(Cc3ccc(S(C)(=O)=O)cc3)CC2)nc2ccn(COCc3ccccc3)c12`, the Ratio EC50 in series [12] was 0.5 to 0.7. Moreover, the selectivity ratio stood at 459 in [1] and 17 in [2]. Moreover, in series [3], the CC50 amounted to 10 µM.

In the case of `Cc1cc(C#N)cc(C)c1Oc1nc(NC2CCN(Cc3ccc(S(C)(=O)=O)cc3)CC2)nc2ccn(S(=O)(=O)c3ccccc3)c12`, the selectivity ratio in series [1] worked out at 270; in [2], 26. Moreover, in [3], the CC50 is 5.15 µM.

For the compound `Cc1cc(C#N)cc(C)c1Oc1nc(NC2CCN(Cc3n[nH]c(=O)n3C)CC2)nc2ccsc12`, the selectivity ratio in series [1] is greater than 18500; in series [2], greater than 15. For the same compound, in [3], the CC50 is greater than 254 µM.

With `Cc1cc(C#N)cc(C)c1Oc1nc(NC2CCN(Cc3cc(=O)[nH]c(=O)[nH]3)CC2)nc2ccsc12`, the selectivity ratio in [1] worked out at 18600; in [2], 15. For the same compound, the inhibition result in [13], in series [14], in series [15] and in [16] was “inactive” in each case. Further, the CC50 in [3] was determined as 133 µM.

As to `Cc1cc(C#N)cc(C)c1Oc1nc(NC2CCN(Cc3ccc(N4CCCC4)cc3)CC2)nc2ccsc12`, the selectivity ratio in series [1] was 133; in [2] it was less than 1. In addition, in series [3], the CC50 turned out to be 4.35 µM.

Turning to `Cc1cc(C#N)cc(C)c1Oc1nc(Nc2ccc(C#N)cc2)nc(N)c1Br` [ETRAVIRINE], the CC50 in series [3] lay in the range of 2.16 to 4.59 µM.

On to `Cc1cc(C#N)cc(C)c1Oc1nc(NC2CCN(Cc3ccc(S(N)(=O)=O)cc3)CC2)nc2ccn(COCc3ccccc3)c12`, for which the Ratio EC50 in series [12] lay in the range of 0.5 to 0.7. In addition, the selectivity ratio came out at 632 in series [1] and 10 in series [2]. Also, the CC50 in series [3] stood at 4.84 µM.

For the compound `Cc1cc(C#N)cc(C)c1Oc1nc(NC2CCN(Cc3ccc(C(N)=O)cc3)CC2)nc2ccn(COCc3ccccc3)c12`, the results for the Ratio EC50 in series [12] and in [17] were 0.5 to 0.7 and 0.9, respectively. The selectivity ratio is 177 in [1] and 9 in series [2]. In addition, in series [3], the CC50 amounted to 6.44 µM.

`Cc1cc(C#N)cc(C)c1Oc1nc(NC2CCN(Cc3ccco3)CC2)nc2ccsc12`: the selectivity ratio in series [1] is greater than 76500. For the same compound, the inhibition result in series [18] was “Active”. Moreover, the inhibition entry in series [13], in [14], in [15] and in series [16] was “inactive” in each case. Also, the CC50 in series [3] is greater than 254 µM.

Regarding `Cc1cc(C#N)cc(C)c1Nc1nc(NC2CCN(Cc3ccc(S(N)(=O)=O)cc3)CC2)nc2ccsc12`, the selectivity ratio in [1] is greater than 159000; in [2], greater than 7440. Besides, the CC50 in series [3] was greater than 227 µM.

As to `Cc1cc(C#Cc2ccccn2)cc(C)c1Oc1nc(NC2CCN(Cc3ccc(S(N)(=O)=O)cc3)CC2)nc2ccsc12`, the selectivity ratio in series [1] turned out to be 1130; in series [2] it was 12. Besides, the CC50 in series [3] came out at 10.3 µM.

Regarding `Cc1cc(C#N)cc(C)c1Oc1nc(NC2CCN(Cc3ccc(S(C)(=O)=O)cc3)CC2)nc2cc[nH]c12`, the selectivity ratio in series [1] is 589; in series [2], 16. In addition, the CC50 in series [3] was 8.12 µM. Further, in series [4], the Ratio EC50 lay within 0.3 to 0.6.

On to `Cc1cc(C#N)cc(C)c1Oc1nc(NC2CCN(Cc3c[nH]cn3)CC2)nc2ccsc12`, for which the selectivity ratio worked out at 4420 in series [1] and 21 in [2]. For the same compound, the inhibition entry in series [13], in series [14], in [15] and in [16] was “inactive” in each case. Moreover, in [3], the CC50 was 24.3 µM.

As for `Cc1cn([C@H]2C[C@H](N=[N+]=[N-])[C@@H](CO)O2)c(=O)[nH]c1=O` [ZIDOVUDINE], the values for the selectivity ratio in [1] and in series [2] were greater than 1000 and greater than 448, respectively. The CC50 in series [3] is 7.48 µM.

In the case of `Cc1cc(C#N)cc(C)c1Oc1nc(NC2CCN(Cc3cn(S(C)(=O)=O)cn3)CC2)nc2ccsc12`, the selectivity ratio in [1] came to 3720; in series [2] it was 8. In addition, the inhibition entry in [13], in series [14], in series [15] and in series [16] was “inactive” each time. The CC50 in series [3] turned out to be 21.1 µM.

Take `Cc1cc(C#N)cc(C)c1Oc1nc(NC2CCN(Cc3ccc(C(N)=O)cc3)CC2)nc2ccn(S(=O)(=O)c3ccccc3)c12`: the results for the selectivity ratio in series [1] and in series [2] were 227 and 2, respectively. Besides, the CC50 in the series with MT4 was greater than 39.3 µM.

What is called CC50 is the concentration at which the toxic effect on the cells reaches its halfway point.
